Data set [1] has as its target G-protein coupled receptor 55 (Homo sapiens, UniProt Q9Y2T6). As to the kind of experiment: blockers of GPR55 signalling, imaged – imaging, image-based, counter-screen for GPR35 antagonist project, SAR follow-up (AID 2397). Format: functional. Background: The purpose of a counterscreen is to sort out artefacts and off-target activity.
The next data set addresses Cytochrome P450 3A4 (Homo sapiens, UniProt P08684).
Data set [2] addresses Protein-tyrosine kinase 2-beta (Homo sapiens, UniProt Q14289).
Data set [3] in a line: viability of uninfected HEp-2 cells – cell-based, HTS, cytotoxicity control for RSV inhibitor project, dose response (AID 2410). Format: functional. Conditions: human respiratory syncytial virus.
Data set [4] deals with Streptococcus. As to the kind of experiment: GAS UMAA2166 growth inhibition – luminescence, BacTiterGlo, counter-screen for streptokinase expression inhibitor project, dose response (AID 1915).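 Further: potency for reduction of bacterial viability or growth.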 Format: functional, organism-based.
The target in data set [5] is Peroxisome proliferator-activated receptor gamma/Nuclear receptor coactivator 3 (Homo sapiens, UniProt P37231). As to the kind of experiment: TR-FRET dose response biochemical High Throughput Screening assay for agonists of the steroid receptor coactivator 3 (SRC-3) recruitment by the peroxisome proliferator-activated receptor gamma (PPAR gamma): non-selective agonists. [Related pubchem assays: 1301 (Confirmation screen.), 1048 (Primary screen.)]. Format: functional. In general terms: In TR-FRET formats the signal depends on donor and acceptor labels being close together.

Another data set concerns the target T1, Streptokinase A (Streptococcus pyogenes serotype M1, UniProt P10520).
T1 sequence (P10520 whole entry): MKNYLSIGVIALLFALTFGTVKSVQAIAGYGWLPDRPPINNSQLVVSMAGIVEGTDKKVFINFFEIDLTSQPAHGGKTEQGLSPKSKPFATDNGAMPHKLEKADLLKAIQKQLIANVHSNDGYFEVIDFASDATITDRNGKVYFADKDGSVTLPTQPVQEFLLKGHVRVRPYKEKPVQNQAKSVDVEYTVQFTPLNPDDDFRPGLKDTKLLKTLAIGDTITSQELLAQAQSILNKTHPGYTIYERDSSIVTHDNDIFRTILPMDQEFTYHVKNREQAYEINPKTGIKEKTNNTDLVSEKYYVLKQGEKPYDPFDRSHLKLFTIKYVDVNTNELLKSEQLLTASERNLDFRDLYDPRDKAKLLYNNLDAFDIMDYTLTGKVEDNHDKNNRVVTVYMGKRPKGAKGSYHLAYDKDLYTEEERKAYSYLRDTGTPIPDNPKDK
As to the kind of experiment: viability-normalized secreted streptokinase activity reduction – plasminogen activation absorbance, OD405, dose response (AID 1914).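 Further: secreted streptokinase activity via plasminogen activation per viability signal from cell pellet.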 Format: functional, Streptococcus pyogenes M1 GAS.

The subject of data set [6] is Streptococcus. Kind of data set: Luminescence Microorganism-Based Dose Response Follow up to Identify Compounds Cytotoxic to Streptococcus. [Related pubchem assays: 1677 (Project Summary), 1915, 1914, 1902 (Retest at Dose), 1900 (Counter Screen), 1662 (Primary HTS)]. Format: functional, organism-based.
The target in data set [7] is Peroxisome proliferator-activated receptor gamma/Nuclear receptor coactivator 2 (Homo sapiens, UniProt P37231). Kind of data set: TR-FRET dose response biochemical High Throughput Screening assay for agonists of the steroid receptor coactivator 2 (SRC-2) recruitment by the peroxisome proliferator-activated receptor gamma (PPAR gamma): non-selective agonists. [Related pubchem assays: 1297, 1032 ]. Format: functional.

Data set [8] addresses Peroxisome proliferator-activated receptor gamma/Nuclear receptor coactivator 1 (Homo sapiens, UniProt P37231). Kind of data set: TR-FRET dose response biochemical High Throughput Screening assay for agonists of the steroid receptor coactivator 1 (SRC-1) recruitment by the peroxisome proliferator-activated receptor gamma (PPAR gamma): non-selective agonists. [Related pubchem assays (depositor defined):AID1300, AID1808, AID504735, AID631]. Format: protein assay.

The subject of data set [9] is Streptococcus sp. 'group A'. As to the kind of experiment: Streptococcus pyogenes SK(-)GAS viability under kanamycin – luminescence, BacTiterGlo, confirmation, counter-screen for streptokinase expression inhibitor project, dose response (AID 1900). Format: functional, organism-based.
The nature of data set [10]: off-target signal loss in HeLa-CEM21 co-culture – HeLa F-luc CTL cells, cherry-picked, counter-screen for HIV-1 Env fusion inhibitor project, dose response (AID 652040).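 Further: potency for signal decrease marking cytotoxic or nonspecific inhibition.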 Format: functional, cell-based.
The target in the next data set is T2, X-box-binding protein 1 (Homo sapiens, UniProt P17861).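 Further: confirmatory dose-response counter-screen serving a CHOP assay.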
T2 sequence (P17861 whole entry): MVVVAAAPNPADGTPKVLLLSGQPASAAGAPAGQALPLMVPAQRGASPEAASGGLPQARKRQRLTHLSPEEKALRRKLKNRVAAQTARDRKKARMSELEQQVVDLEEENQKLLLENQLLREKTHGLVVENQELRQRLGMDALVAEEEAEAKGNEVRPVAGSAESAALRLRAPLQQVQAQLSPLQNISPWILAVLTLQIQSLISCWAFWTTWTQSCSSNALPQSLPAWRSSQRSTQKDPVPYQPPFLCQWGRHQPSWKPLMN
Format: functional, Cricetulus griseus.

Data set [11] has as its target DNA damage-inducible transcript 3 protein (Mus musculus, UniProt P35639). Format: functional, Cricetulus griseus.
Data set [12] concerns HEK293. As to the kind of experiment: inhibition of NOD1-driven NF-kB reporter – cell-based, luminescence, uHTS, primary screen (AID 1578). Format: functional. Conditions: Homo sapiens.
For data set [13], the system named is HEK293. As to the kind of experiment: cells. Format: functional, cell-based. The following applies: Homo sapiens.
The test system of data set [14] is HEK293. As to the kind of experiment: NOD2 signaling inhibitors in MDP-stimulated cells, cell-based, uHTS, luminescence (AID 2001). Conditions: Homo sapiens. Format: functional.
Data set [15] deals with HEK293. Kind of data set: cells. Format: functional, cell-based. Conditions: Homo sapiens. The source holds these as a separate data set.
For data set [16], the target named is T3, Mannose-6-phosphate isomerase (Homo sapiens, UniProt P34949).
T3 sequence (P34949 whole entry): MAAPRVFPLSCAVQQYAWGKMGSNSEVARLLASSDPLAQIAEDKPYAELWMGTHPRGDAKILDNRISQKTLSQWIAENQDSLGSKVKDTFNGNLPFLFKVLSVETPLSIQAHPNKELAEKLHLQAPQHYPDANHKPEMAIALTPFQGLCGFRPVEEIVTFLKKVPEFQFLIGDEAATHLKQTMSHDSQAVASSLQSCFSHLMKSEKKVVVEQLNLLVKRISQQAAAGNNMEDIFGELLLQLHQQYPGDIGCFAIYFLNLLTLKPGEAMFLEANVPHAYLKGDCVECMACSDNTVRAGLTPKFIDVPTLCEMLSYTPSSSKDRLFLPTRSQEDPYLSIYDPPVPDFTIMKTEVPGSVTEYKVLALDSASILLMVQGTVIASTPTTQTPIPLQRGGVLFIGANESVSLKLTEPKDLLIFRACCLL
As to the kind of experiment: phosphomannose isomerase inhibition – biochemical, fluorescence intensity, confirmation (AID 1535).

Another data set concerns the target Phosphomannomutase 2 (Homo sapiens, UniProt O15305). Kind of data set: Counter screen SAR assay for PMM2 inhibitors via a fluorescence intensity assay. [Related pubchem assays (depositor defined):AID1545, AID1574].
Data set [17] has as its target T4, Replicative DNA helicase DnaB (Mycobacterium tuberculosis, UniProt P9WMR3).
T4 sequence (P9WMR3 whole entry): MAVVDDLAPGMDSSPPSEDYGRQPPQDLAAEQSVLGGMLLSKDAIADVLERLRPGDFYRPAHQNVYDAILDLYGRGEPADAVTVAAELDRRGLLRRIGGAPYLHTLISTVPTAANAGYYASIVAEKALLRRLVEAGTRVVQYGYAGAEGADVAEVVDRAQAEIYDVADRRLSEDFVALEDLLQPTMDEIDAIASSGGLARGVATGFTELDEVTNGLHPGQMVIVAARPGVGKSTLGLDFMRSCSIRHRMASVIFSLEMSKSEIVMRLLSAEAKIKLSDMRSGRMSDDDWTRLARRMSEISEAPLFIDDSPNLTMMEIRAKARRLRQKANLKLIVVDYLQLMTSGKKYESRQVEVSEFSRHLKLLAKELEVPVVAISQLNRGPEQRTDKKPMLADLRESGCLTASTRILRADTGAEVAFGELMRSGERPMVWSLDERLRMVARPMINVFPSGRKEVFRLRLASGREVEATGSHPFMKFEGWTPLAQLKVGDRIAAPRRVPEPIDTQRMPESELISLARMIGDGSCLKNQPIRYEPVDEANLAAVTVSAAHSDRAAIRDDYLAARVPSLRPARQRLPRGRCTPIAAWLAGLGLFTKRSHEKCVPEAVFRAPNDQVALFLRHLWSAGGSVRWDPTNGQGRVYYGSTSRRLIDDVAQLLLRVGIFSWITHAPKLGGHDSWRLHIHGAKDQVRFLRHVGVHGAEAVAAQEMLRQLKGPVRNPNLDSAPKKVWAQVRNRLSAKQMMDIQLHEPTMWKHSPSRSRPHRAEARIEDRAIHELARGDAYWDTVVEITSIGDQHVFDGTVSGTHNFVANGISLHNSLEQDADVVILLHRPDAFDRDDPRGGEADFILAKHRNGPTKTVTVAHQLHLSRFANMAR
Kind of data set: DnaB intein splicing inhibitors, dose response, biochemical, cell-free fluorescence (AID 449749). Format: functional.

The next data set deals with Troponin, cardiac muscle (Homo sapiens, UniProt P19429+P45379+P63316). Kind of data set: Fluorescence-based biochemical high throughput dose response assay for activators of the calcium sensitivity of cardiac Regulated Thin Filaments (RTF). [Related pubchem assays (depositor defined):AID493008, AID493018, AID504382, AID504383]. Format: protein-complex assay.
The next data set addresses T5, Protein RecA (Mycobacterium tuberculosis, UniProt P9WHJ3).
T5 sequence (P9WHJ3 whole entry): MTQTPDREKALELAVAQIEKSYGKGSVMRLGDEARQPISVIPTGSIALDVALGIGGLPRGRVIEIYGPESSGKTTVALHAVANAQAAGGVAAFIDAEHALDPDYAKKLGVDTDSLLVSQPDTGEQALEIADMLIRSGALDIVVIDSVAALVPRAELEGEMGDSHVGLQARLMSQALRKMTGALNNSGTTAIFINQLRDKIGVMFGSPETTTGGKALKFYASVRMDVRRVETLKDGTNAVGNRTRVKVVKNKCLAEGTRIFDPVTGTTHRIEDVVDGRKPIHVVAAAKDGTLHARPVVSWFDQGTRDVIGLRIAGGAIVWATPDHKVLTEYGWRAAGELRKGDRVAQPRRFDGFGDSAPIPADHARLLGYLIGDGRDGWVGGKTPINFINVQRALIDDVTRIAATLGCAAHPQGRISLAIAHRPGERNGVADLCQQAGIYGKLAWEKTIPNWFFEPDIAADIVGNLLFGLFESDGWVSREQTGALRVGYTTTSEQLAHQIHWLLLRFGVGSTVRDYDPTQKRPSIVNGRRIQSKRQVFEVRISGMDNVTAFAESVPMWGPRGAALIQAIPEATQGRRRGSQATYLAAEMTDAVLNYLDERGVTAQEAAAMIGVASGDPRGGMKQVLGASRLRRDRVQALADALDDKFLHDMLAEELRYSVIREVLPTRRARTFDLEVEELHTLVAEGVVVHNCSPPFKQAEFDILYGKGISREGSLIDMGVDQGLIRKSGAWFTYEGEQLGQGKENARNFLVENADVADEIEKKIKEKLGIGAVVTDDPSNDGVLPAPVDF
As to the kind of experiment: Fluorescence Cell-Free Homogeneous Dose Retest to Identify Inhibitors of RecA-Intein Splicing Activity. [Related pubchem assays (depositor defined):AID2097, AID2223, AID489010, AID492950]. Format: functional.

The source made the active and inactive calls.

The IC50 is the concentration that gives 50% inhibition. Take `Cc1nc(N2CCC(C)CC2)c2c(C)c(C(=O)Nc3ccc(C)c(F)c3)sc2n1`: the IC50 in data set [1] was > 32 µM (inactive).
In general, AC50 refers to the concentration at which the activity in the assay is half-maximal. Turning to `CCc1nnc(NC(=O)CCC(=O)N2CCN(c3ccccn3)CC2)s1`, the AC50 result on Cytochrome P450 3A4 is recorded as “inconclusive”.
One may read the CC50 as the concentration that lowers cell viability or growth by half. As usually defined, the EC50 is the concentration that produces a half-maximal response. `COc1ccc(-c2nc(-c3cccs3)c(-c3cccs3)[nH]2)cc1OC`: the IC50 in data set [2] is > 69.5 µM (not active). Further, the CC50 in data set [3] is 23.4 µM (active). For the same compound, the EC50 in the data set with Streptococcus [4] is > 150 µM (not active); in data set [5], > 79.4 µM (not active); on Streptokinase A it was 1.41 µM (active); with Streptococcus [6] it was 5.41 µM (active); in [7], 15.6 µM (not active); in data set [8] it was 13.9 µM (inactive). In data set [9], the EC50 was 2.57 µM (active).
On to `Cc1ccc(Cn2ncc3c(N4CCN(c5ccc(C)cc5)CC4)ncnc32)cc1`, for which the IC50 in [1] is > 32 µM (inactive). For the same compound, the concentration at half-maximal activity (AC50) in [10] is 6.95 µM (active).
Consider `O=C1NC(=O)N(Cc2ccco2)C(=O)/C1=C/C=C/c1ccco1`, for which the “Absolute IC50 (XBP1)” value on X-box-binding protein 1 was 10 µM. Besides, the “Absolute IC50 (CHOP)” value in [11] turned out to be 10 µM. In the data set with HEK293 [12], the EC50 is > 20 µM (inactive). Moreover, the IC50 with HEK293 [13] is 16.2 µM (active); in the data set on HEK293 [14], > 20 µM (inactive); in the data set on HEK293 [15], > 20 µM (inactive).
Regarding `COc1cc(S(=O)(=O)NCc2ccncc2)ccc1Br`, the EC50 with HEK293 [12] is 3.02 µM (active). The IC50 with HEK293 [13] is 16.5 µM (active); in the data set on HEK293 [14], > 20 µM (inactive); in the data set with HEK293 [15], > 20 µM (inactive).
For `Clc1cccc(/N=c2\ssnc2Cl)c1`, the IC50 in data set [16] is 51.1 µM (active); on Phosphomannomutase 2, > 100 µM (inactive).
As for `Cc1cccc(/C=N/NC(=O)C(C)Nc2cccc3ccccc23)n1` (stereo unspecified), in data set [17], the AC50 was 3.78 µM (active). Besides, the EC50 at Troponin, cardiac muscle was 10.5 µM (inactive); at Protein RecA, 47.1 µM (active).
`CSc1oc(-c2ccccc2)nc1C(N)=O`: the EC50 in [5] was > 79.4 µM (not active); in [7], 60.1 µM (not active); in data set [8] it was 359 µM (inactive).

The values above are taken from ChEMBL document CHEMBL1201862, “PubChem BioAssay data set” (2004).
